Here are results for one substance from patent publication US20060166287A1, “Method for Identifying compounds for suppressing metastasizing tumor cells” (priority 2002, published 2006).

For this assay, the system named is c-Met. In words: c-Met activation (ERK phosphorylation) by pro-HGF versus active HGF in HT29 and BSp73Asv4-7Δ15 cell lines, Western blot. It is filed as cell-based. As to conditions: HT29 and BSp73Asv4-7Δ15 cells with competent CD44 isoforms, FIG. 5. The text has this:
HGF/SF is secreted as single-stranded precursor which is processed by serum proteinases (Shimomura, 1995) or plasminogen activators of the urokinase type (Naldini, 1995) into an active a form and β subunits. Investigations into whether CD44 is involved in the activation of HGF was employed HGF precursor which was purchased and isolated from Drosophila Schneider cells (S2) for the activation of c-Met (FIG. 5).
(B) Western blot analyses to investigate the cleavage of the precursors pro-HGF (HGFp; enriched from Drosophila Schneider cells (S2)) into the active form HGFa by means of CD44 in the HT29 and BSp73Asv4-7Δ15 cell lines. The pro form is unable, despite the presence of competent CD44 isoforms, to mediate ERK phosphorylation by c-Met activation. In contrast thereto, processed, active HGF is capable, with the assistance of competent CD44 isoforms, of c-Met activation.
(C) Western blot analysis to investigate the cleavage of the precursor pro-HGF (HGFp; commercial) into the active form HGFa by means of CD44 in the HT29 and BSp73Asv4-7Δ15 cell lines. The pro form is unable, despite the presence of competent CD44-isoforms, to mediate ERK phosphorylation by c-Met activation. In contrast thereto, processed, active HGF is capable, with the assistance of competent CD44 isoforms, of c-Met activation.

Regarding “pro-HGF: single-stranded HGF/SF precursor, purchased or isolated from Drosophila Schneider cells (S2)”, the “Ability to activate c-Met / mediate ERK phosphorylation” value is recorded as “unable”. Further, where the note is “listed as pro form of HGF”, the “Ability to activate c-Met / mediate ERK phosphorylation” value is given as “unable to activate c-Met”.
